This passage reports IC50 and Ki results from ChEMBL document CHEMBL1148820, “Preparation and optimization of a series of 3-carboxamido-5-phenacylaminopyrazole bradykinin B1 receptor antagonists” (J Med Chem, 2007).

Test [1] deals with T1, B1 bradykinin receptor (Homo sapiens, UniProt P46663).
T1 sequence (P46663 whole entry): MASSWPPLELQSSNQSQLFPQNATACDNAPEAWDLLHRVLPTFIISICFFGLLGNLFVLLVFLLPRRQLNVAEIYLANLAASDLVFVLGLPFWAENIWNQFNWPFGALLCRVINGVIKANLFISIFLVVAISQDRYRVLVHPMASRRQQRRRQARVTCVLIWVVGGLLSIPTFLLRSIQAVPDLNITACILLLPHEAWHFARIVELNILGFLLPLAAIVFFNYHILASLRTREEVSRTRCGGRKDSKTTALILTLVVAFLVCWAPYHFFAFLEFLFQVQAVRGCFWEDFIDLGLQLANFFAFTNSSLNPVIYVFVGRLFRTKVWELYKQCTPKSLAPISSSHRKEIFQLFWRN
As to the kind of experiment: Antagonist activity at human bradykinin B1 receptor in IL1-beta stimulated IMR90 cells by FLIPR assay. Format: functional, cell-based, IMR-90.

In test [2] the target is T1, B1 bradykinin receptor. As to the kind of experiment: Displacement of [3H]DAKA from human bradykinin B1 receptor in IL1-beta stimulated IMR90 cells. Format: cell-based, IMR-90. On the technique in general: In a radioligand displacement assay an active substance lowers the binding of a labelled ligand.

In turn, `Cn1nc(NC(=O)c2ccccc2Cl)c(Br)c1C(=O)NCCC1CCN(c2ccncc2)CC1` displayed an IC50 in test [1] of 640 nM. On the same count and under the same terms, the same measure for `O=C(Nc1c(Br)c(C(=O)NCCC2CCN(c3ccncc3)CC2)nn1-c1ccccn1)c1ccccc1Cl`: 12 nM; for `O=C(Nc1ccccc1)c1cc(NC(=O)c2ccccc2Cl)[nH]n1`: more than 10000 nM.

In the case of `Cc1c(C(=O)Nc2ccccc2)n[nH]c1NC(=O)c1ccccc1Cl`, in test [1], the IC50 is 2000 nM. On the same count and under the same terms, the same measure for `NC(=O)[C@@H](NC(=O)c1n[nH]c(NC(=O)c2ccccc2Cl)c1Br)c1ccccc1`: 1700 nM. On the same count and under the same terms, the same measure for `O=C(Nc1[nH]nc(C(=O)NCCC2CCN(c3ccncc3)CC2)c1F)c1ccccc1Cl`: 23 nM; for `Cc1c(C(=O)NCCC2CCN(c3ccncc3)CC2)n[nH]c1NC(=O)c1ccccc1Cl`: 9.3 nM; for `CC(=O)Nc1[nH]nc(C(=O)NC2N=C(c3ccccc3)c3ccccc3NC2=O)c1Br` (configuration not stated): more than 10000 nM. `COC(=O)[C@@H](NC(=O)c1n[nH]c(NC(=O)c2ccccc2Cl)c1Br)c1ccccc1` displayed an IC50 in test [1] of 290 nM. In addition, the affinity in test [2] corresponds to a Ki of 73 nM. In test [1], `Cn1nc(C(=O)NCCC2CCN(c3ccncc3)CC2)c(Br)c1NC(=O)c1ccccc1Cl` had an IC50 of 44 nM. The compound `O=C(Nc1[nH]nc(C(=O)NCCc2ccncc2)c1Br)c1ccccc1Cl` registered an IC50 in test [1] of 490 nM. The inhibition constant (Ki) in test [2] amounted to 120 nM. `Nc1cccc(N2CCC(CNC(=O)c3n[nH]c(NC(=O)c4ccccc4Cl)c3Br)CC2)n1` had an IC50 in test [1] of 13 nM.

The compound `COc1ccc(-n2nc(C(=O)NCCC3CCN(c4ccncc4)CC3)c(Br)c2NC(=O)c2ccccc2Cl)cc1` came in with an IC50 in test [1] of 1200 nM.

In test [1], `CN1CCC(N2CCC(CCNC(=O)c3nn(-c4ccccc4)c(NC(=O)c4ccccc4Cl)c3Br)CC2)CC1` yielded an IC50 of 320 nM.

For `CN(C)CCn1nc(C(=O)NCCC2CCN(c3ccncc3)CC2)c(Br)c1NC(=O)c1ccccc1Cl`, in test [1], the concentration for half-maximal inhibition (IC50) was determined as 1600 nM. Same read-out and setting: the same measure for `O=C(Nc1c(Br)c(C(=O)N[C@@H]2CCCCNC2=O)nn1-c1ccccc1)c1ccccc1Cl`: more than 10000 nM; for `CC(C)(C)c1ccc(-c2n[nH]c(NC(=O)c3ccccc3Cl)c2Br)cc1`: 3200 nM; for `CN1CCC(CCNC(=O)c2n[nH]c(NC(=O)c3ccccc3Cl)c2Br)CC1`: 86 nM. On the same count and under the same terms, the same measure for `CC[C@@H](NC(=O)c1n[nH]c(NC(=O)c2ccccc2Cl)c1Br)C(=O)N(C)C`: 82 nM; for `O=C(Nc1[nH]nc(C(=O)N[C@@H]2CCCCNC2=O)c1Br)c1ccccc1Cl`: 290 nM; for `C[C@@H](NC(=O)c1n[nH]c(NC(=O)c2ccccc2Cl)c1Br)c1ccccc1`: 210 nM. Same read-out and setting: the same measure for `O=C(Nc1c(Br)c(C(=O)NCCC2CCN(c3ccncc3)CC2)nn1Cc1ccccc1)c1ccccc1Cl`: 71 nM. In test [1], `O=C(Nc1c(Br)c(C(=O)N[C@@H]2N=C(c3ccccc3)c3ccccc3NC2=O)nn1-c1ccccc1)c1ccccc1Cl` showed an IC50 of more than 10000 nM.

Take `O=C(Nc1c(Br)c(C(=O)NCCC2CCN(c3ccncc3)CC2)nn1-c1ccccc1)c1ccccc1Cl`: the IC50 in test [1] was 3.5 nM. The same measure, in the same setting: the same measure for `O=C(Nc1[nH]nc(C(=O)NC2N=C(c3ccccc3)c3ccccc3NC2=O)c1Br)c1ccccc1` (configuration not stated): 49 nM; for `O=C(NCCC1CCN(c2ccncc2)CC1)c1cc(NC(=O)c2ccccc2Cl)[nH]n1`: 200 nM; for `O=C(Nc1[nH]nc(C(=O)NCCC2CCN(c3ccncc3)CC2)c1Cl)c1ccccc1Cl`: 3.9 nM. Turning to `O=C(Nc1[nH]nc(C(=O)Nc2ccc(CCC3=NCCN3)cc2)c1Br)c1ccccc1Cl`, the half-maximal inhibitory concentration (IC50) in test [1] came out at 0.075 nM. The same measure, in the same setting: the same measure for `C[C@@H](NC(=O)c1n[nH]c(NC(=O)c2ccccc2Cl)c1Br)C(=O)N1CCCCC1`: 16 nM; for `O=C(Nc1[nH]nc(C(=O)Nc2ccccc2)c1Cl)c1ccccc1Cl`: 700 nM; for `O=C(Nc1[nH]nc(C(=O)NC2N=C(c3ccccc3)c3ccccc3NC2=O)c1Br)c1ccccc1F` (configuration not stated): 10 nM.

`O=C(Nc1[nH]nc(C(=O)Nc2ccncc2)c1Br)c1ccccc1Cl`: the 50% inhibitory concentration (IC50) in test [1] was 560 nM.

For the compound `CC(C)C(=O)Nc1[nH]nc(C(=O)NC2N=C(c3ccccc3)c3ccccc3NC2=O)c1Br` (configuration not stated), in test [1], the IC50 turned out to be 650 nM.

In turn, `O=C(Nc1[nH]nc(C(=O)Nc2ccccc2)c1Br)c1ccccc1Cl` showed an IC50 in test [1] of 530 nM. This compound also came in with an inhibition constant (Ki) in test [2] of 200 nM.

For the compound `CN1CCC(N2CCC(CCNC(=O)c3n[nH]c(NC(=O)c4ccccc4Cl)c3Br)CC2)CC1`, it took 1.8 nM to reach half-maximal inhibition in test [1] (IC50). Still for that read-out and setting: to `Cc1nc(-c2n[nH]c(NC(=O)c3ccccc3Cl)c2Br)cs1` belongs 1100 nM. Still for that read-out and setting: to `O=C(Nc1[nH]nc(C(=O)NCCC2CCN(c3ccncc3)CC2)c1Br)c1ccccc1Cl` belongs 3 nM.

Compound `O=C(Nc1[nH]nc(C(=O)N[C@@H]2CN3CCC2CC3)c1Br)c1ccccc1Cl` displayed an IC50 in test [1] of 60 nM. On the same count and under the same terms, the same measure for `O=C(Nc1[nH]nc(C(=O)NC2N=C(c3ccccc3)c3ccccc3NC2=O)c1Br)c1ccccc1Cl` (racemic): 5.2 nM.

As usually defined, the IC50 is the midpoint of a concentration-inhibition curve. Higher therefore signals a need for much substance. A word on the Ki: it is the dissociation constant of the complex between target and ligand, obtained from inhibition or displacement. Higher therefore signals a looser hold on the target.
